Patent US10532084B2, “Chondrocyte extracellular matrix-derived peptide” (EYEBIO KOREA, priority 2016, dated 2020)
“Also recorded” adds a separate entry of the source.

How the values were obtained:
[1] = test system: TNF-α, ICAM-1, VCAM-1, MMP-2 and MMP-9; settings: 10 days of treatment after removal of dry stress
Method: (§1) NOD.B10.H2^b mice were purchased from Jackson Laboratory (Bar Harbor, Me., USA). Animal experiments were carried out in accordance with the guidelines approved by the University of Inje (No.; 2014-029) and ARVO regarding animal use for eye and vision research. NOD.B10.H2^b mice at 12-16 weeks old were exposed to 40-50% ambient humidity and ventilation using a fan for 18 hours a day as dry stress and subcutaneously injected with 0.5 mg/0.2 mL muscarinic receptor blocker. In addition, scopolamine hydrobromide (Sigma-Aldrich, St. Louis, Mo.) was injected alternately to the […] hips four times a day for 10 days at 9 am, […].
(§2) After 10 days of ocular dry stress, the scopolamine injection was stopped, and switched to a normal humidity and temperature environment and the dry stress was removed, 10 mg/ml Hyp-[…] and collagen were dissolved in normal saline to administer 5 μL each 5 times a day for 10 days, and normal saline and 0.1% HA were administered to the eyeball 5 times a day for 10 days. Three mice were used in each of the six experimental groups using both eyes of the mice and all experiments were repeated.

[2] = Tear amount by phenol red-impregnated cotton threads, dry eye model; format: in vivo, NOD.B10.H2b mice
Method: Tear production was measured by a method reported using phenol red-impregnated cotton threads (Zone-Quick, Oasis, Glendora, Calif.) (Villareal A L, Farley W, Pflugfelder S C. Effect of topical ophthalmic epinastine and olopatadine on tear volume in mice. Eye Contact Lens. 2006; 32 (6): 272-276.). […] The measured lachrymal fluid in the millimeter was compared with a standard curve expressed as a cotton thread which was soaked with the expected tear amount of mouse of basic solution ([…] of 0.9% salt and 5 mL of 5 N NaOH) for 20 seconds.
The degree of tear generation was measured by phenol red-impregnated cotton threads.

[3] = test system: corneal epithelial cell; assay: Corneal epithelial cell detachment (H&E), dry eye model; format: in vivo, NOD.B10.H2b mice
Method: as §1, §2

[4] = test system: human vascular endothelial cells (HUVEC); assay: Tubing assay (VEGF-induced tube formation); format: cell-based; settings: 4 hours
Method: The antiangiogenic effect of hydroxy proline-GQDGLAGPK was confirmed by tubing assay using human vascular endothelial cells (HUVEC).
HUVEC cells were stained with calcein-AM and then dispensed on a Matrigel-coated 48-well plate, treated with collagen, CPI and CPII at concentrations together with 50 ng/ml of recombinant human VEGF, and after 4 hours of incubation at 37° C., tube formation was observed by fluorescence microscopy (Leica) and tube length was analyzed by Image lab software (Bio-Rad Laboratories).
Tubing assay using human vascular endothelial cells (HUVEC) was performed to confirm the anti-angiogenic effect of hydroxyl proline-GQDGLAGPK.

[5] = test system: VEGF, VEGFR-1 (Flt-1), VEGR-2 (Flk-1) and Angiopoietin 2; settings: mouse, 14 days after laser, 5 μg
Method: (§3) C57BL/6 mice were purchased from Orient Bio and the animal experiments was carried out in accordance with the guidelines approved by the University of Inje (No, 2013-053) and ARVO regarding animal use for eye and vision studies. 6-week-old C57BL/6 mice were treated with diode green laser (532 nm, 150 mW, 0.1 sec, […], photocoagulator) to damage the retinal optic nerve area. Immediately after laser irradiation, CP1, CPII and positive control group Avastin were dissolved in PBS and administered 5 mg each per a day in the eyeball for 5 days. The above experiment for each experiment group was performed using both eyes of five mice each.

[6] = test system: macrophages, TNFα, ICAM-1, IL-1β, IL-6 and MMP-9; settings: rabbit alkaline burn; 10 days treatment; immunostaining
Method: (§4) The rabbits were randomly divided into an alkaline burn group (n=5) and a peptide treated group (n=5). In the alkaline burn group, normal saline was administered 4 times daily and in the peptide-treated group, Hyp-[…] peptide of 10 mg/mL was administered 4 times daily, and the left eye was used as a control group.
(§5) Tissue sections were cut into 6 μm thickness and used for immunohistochemical analysis.
(§6) First, tissue sections were fixed with 3.5% paraformaldehyde and permeated with 0.1% Triton X-100, inactivated 2% bovine serum albumin (BSA; all from Sigma, St. Louis, Mo.) and incubated overnight at 4° C. with anti-CD31(1:1,000; Abcam Inc., Cambridge, Mass.), anti-bFGF(1:1,000; Bioss Inc., Woburn, Mass.), anti-IL-1β, anti-IL-6(1:1,000; Cloud-Clone Corp., Houston, Tex.), anti-MMP-9, anti-ICMA-1, anti-TNFα, anti-macrophage/mononucleus (1:1,000; Abnova Crop., Taipei, Taiwan) and anti-VEGF-A (Abbiotec, San Diego, Calif.) primary antibody.
(§7) Thereafter, the secondary antibody was incubated for 45 minutes in the section and the immunological response was visualized with diaminobenzidine (DAB) chromogen, and the section was contrast-stained with Mayer's hematoxylin (Sigma) for 30 seconds at room temperature.
(§8) The dyed sections were photographed by a virtual microscope (NanoZoomer 2.0 RS, Hamamatsu, Japan).

[7] = test system: CD31, FGF and VEGF; settings: rabbit alkaline burn; 10 days treatment; immunostaining
Method: as §4, §5, §6, §7, §8

[8] = test system: choroidal neovascularization (CNV); assay: Laser-induced choroidal neovascularization (CNV), lesion size by retina-choroid flat-mount; format: in vivo, C57BL/6 mice; settings: mouse, laser irradiation
Method: as §3, with “Immediately after laser irradiation, CP1, CPII and positive control group Avastin were dissolved in PBS and administered 5 mg each per a day in the eyeball for 5 days.” left out, “each. […]” for “each.”
The mouse was anesthetized and injected with 25 mg/ml of FITC-dextran in […] of retro-orbital. After 30 minutes, the mouse was euthanized and the eyeball was extracted and fixed with 10% formalin and then, the cornea and lens were removed and flat mounted on the cover glass. The neovasculature stained with FITC-dextran was observed by fluorescence microscopy (Leica) and the lesion size was measured by Image J program. […]

hydroxy proline-GQDGLAGPK [Hyp-GQDGLAGPK]
expression of inflammation-related factors in the lacrimal gland compared with CsA, DQS and HA treated mice [1]: significantly inhibited | expression of inflammation-related factors (TNF-α, ICAM-1, VCAM-1, MMP-2, MMP-9) in the lacrimal gland ([1]; immunostaining): markedly reduced | tear amount increase vs DS 10D group ([2]; 10 days after treatment): 7.9 times | tear amount relative to CsA treatment group ([2]; 10 days after treatment): 1.7 times | tear amount relative to DQS treatment group ([2]; 10 days after treatment): 1.4 times | tear amount relative to HA treatment group ([2]; 10 days after treatment): 1.6 times | tear amount relative to collagen positive control group ([2]; 10 days after treatment): about 1.7 times | tear amount relative to normal saline negative control group ([2]; 10 days after treatment): about 2.8 times | tear amount ([2]; 10 days of treatment after removal of dry stress, normal 0.22±0.01, DS 10D 0.03±0.01): 0.23 ± 0.02 µL | reduction of corneal epithelial cell detachment vs CsA group ([3]; 10 days of treatment): 75% | reduction of corneal epithelial cell detachment vs DQS group ([3]; 10 days of treatment): 60% | reduction of corneal epithelial cell detachment vs HA group ([3]; 10 days of treatment): 77.8% | reduction of corneal epithelial cell detachment vs collagen group ([3]; 10 days of treatment): 55.6% | reduction of corneal epithelial cell detachment vs dry stress (DS 10D) ([3]; 10 days of treatment): 83.3% | reduction of corneal epithelial cell detachment vs normal saline group ([3]; 10 days of treatment): 71.4% | corneal epithelial cell detachment ([3]; 10 days of treatment after removal of dry stress, DS 10D 2.29±0.57): 0.38±0.17 /0.1 mm^2 | concentration dependence of tube formation inhibition ([4]; 50 ng/ml VEGF): concentration-dependent manner | tube formation compared with the VEGF-untreated group ([4]; 50 ng/ml VEGF): decreased to almost same extent of angiogenesis of the VEGF-untreated group | inhibition of tube formation (angiogenesis) ([4]; 50 ng/ml recombinant human VEGF, listed as CPII): significant inhibition of angiogenesis; also recorded: best anti-angiogenic efficacy; also recorded: best anti-angiogenic ability | protein expression of VEGF, VEGFR-1, -2 and Angiopoietin 2 compared with Avastin [5]: almost similar to that of Avastin | protein expression of VEGF, VEGFR-1, VEGFR-2 and Angiopoietin 2 in retina and choroid ([5]; immunoblotting): markedly decreased | expression of MMP-9 in the cornea [6]: inhibited | expression of inflammatory factors TNFα, IL-1β, IL-6 and ICAM-1 [6]: decreased | expression of macrophages in the cornea [6]: effectively inhibited | expression of CD31, FGF and VEGF in epithelium, subepithelium and matrix [7]: significant decreases | CNV lesions ([8]; 2 μg intraocular injection for 5 days, listed as CPII): reduced; also recorded: decreased | CNV lesion size vs control group ([8]; 5 μg intraocularly for 5 consecutive days, 14 days after laser, FITC-dextran flat-mount): significantly decreased
